From patent publication US20230364074A1, “Compounds and Compositions for Disrupting Programmed Ribosomal Frameshifting” (YALE UNIVERSITY, priority 2020, published 2023)
Counter-ions that a name gives are not always drawn. Like-named read-outs stand apart in the source and are kept apart here.

Assays:
SARS-CoV-2 FSE (−1 PRF) = assay: cells; type: cell-based
HEK293T cells = assay: Cell viability in the high-throughput screen (cell nuclei numbers)
Experimental: HEK293T cells were plated in 384 well plates at the density of 5,000 cells/well. Cells were treated by 10 μM candidate compounds 30 min before transfection of 15 ng mCherry-FSE-GFP(−1) plasmid DNA in each well. 24 hours after transfection, cell nuclei were stained with Hoechst dye. Cell nuclei, mCherry, and GFP signals were imaged using an automated fluorescent microscope with a 10x objective, and the acquired images were quantified using the CellProfiler image analysis package. Cell nuclei numbers were quantified as the metric for cell viability. Mean GFP and RFP intensity values were measured in all transfected cells, and GFP/mCherry mean intensity ratios were quantified as the metric for PRF efficiency. The mCherry-GFP fusion plasmid and the mCherry-FSE-GFP(0) plasmid were used as positive and negative controls for elevated and reduced GFP/mCherry ratios, respectively.

[1] = Severe acute respiratory syndrome coronavirus 2, HEK-293T, 24 h, read-out: PERCENT EFFECT 2 (Decreased GFP/Red ratio)
[2] = 10 μM compound, cell nuclei numbers
[3] = Severe acute respiratory syndrome coronavirus 2, HEK-293T, 24 h; read-out: PERCENT EFFECT (Increased GFP/Red Ratio)
[4] = Severe acute respiratory syndrome coronavirus 2, HEK-293T, 24 h, read-out: PERCENT EFFECT (Increased GFP/Red Ratio)
[5] = Severe acute respiratory syndrome coronavirus 2, HEK-293T, 24 h; read-out: PERCENT EFFECT 2 (Decreased GFP/Red ratio)

Molecule | PERCENT VIABILITY (HEK293T cells; [2]) [%] | activation at 10 µM (SARS-CoV-2 FSE (−1 PRF); [3]) [%] | inhibition at 10 µM (SARS-CoV-2 FSE (−1 PRF); [5]) [%] | also measured
COc1cccc2c1C(=O)c1c(O)c3c(c(O)c1C2=O)C[C@@](O)(C(C)=NNC(=O)c1ccccc1)C[C@@H]3O[C@H]1C[C@H](N)[C@H](O)[C@H](C)O1.Cl [zorubicin, N-[1-[(2S,4S)-4-[(2R,4S,5S,6S)-4-amino-5-hydroxy-6-methyloxan-2-yl]oxy-2,5,12-trihydroxy-7-methoxy-6,11-dioxo-3,4-dihydro-1H-tetracen-2-yl]ethylideneamino]benzamide hydrochloride] |  |  |  | inhibition at 10 µM (SARS-CoV-2 FSE (−1 PRF); [1]): 106%
COc1ccc(C[C@H](N)C(=O)NC2[C@@H](O)[C@H](n3cnc4c(N(C)C)ncnc43)O[C@@H]2CO)cc1 (stereo partly drawn) [puromycin, (2S)-2-amino-N-[(2S,4R,5R)-5-(6-dimethylaminopurin-9-yl)-4-hydroxy-2-(hydroxymethyl)oxolan-3-yl]-3-(4-methoxyphenyl)propanamide] | 26.1 | 18.9 |  | PERCENT VIABILITY (HEK293T cells; 10 μM compound, cell nuclei numbers, listed as Puromycin): 49.7%
CC(=O)[C@]1(N)Cc2c(O)c3c(c(O)c2[C@@H](O[C@H]2C[C@H](O)[C@H](O)CO2)C1)C(=O)c1ccccc1C3=O.Cl [amrubicin, (7S,9S)-9-acetyl-9-amino-7-[(2S,4S,5R)-4,5-dihydroxyoxan-2-yl]oxy-6,11-dihydroxy-8,10-dihydro-7H-tetracene-5,12-dione hydrochloride] |  |  |  | PERCENT VIABILITY (HEK293T cells; human): 111.0%; inhibition at 10 µM (SARS-CoV-2 FSE (−1 PRF); [1]): 50.5%; activation at 10 µM (SARS-CoV-2 FSE (−1 PRF); [4]): -23.7%
CCCC1(CCC)CCC2(CCN(CCCN(CC)CC)C2)CC1 [atiprimod, 3-(8,8-dipropyl-3-azaspiro[4.5]decan-3-yl)-N,N-diethylpropan-1-amine] | 7.2 | 21.2 | -40.9 | 
C[C@@H]1O[C@@H](O[C@@H]2C=C3CC[C@@H]4[C@H](CC[C@]5(C)[C@@H](c6ccc(=O)oc6)CC[C@]45O)[C@@]3(C)CC2)[C@H](O)[C@H](O)[C@H]1O [PROSCILLARIDIN] | 3.4 | 16.5 | -37.8 | 
CC(=O)[C@]1(O)Cc2c(O)c3c(c(O)c2[C@@H](O[C@H]2C[C@H](N)[C@H](O)[C@H](C)O2)C1)C(=O)c1ccccc1C3=O [idarubicin] | 10.75 | -40.6 | 76.8 | 
CCN(CC)CCCC(C)Nc1c2ccc(Cl)cc2nc2ccc(OC)cc12 (centres unmarked) [QUINACRINE HYDROCHLORIDE] | 147.8 | 21.1 | -40.8 | 
CCN(CCO)CCCC(C)Nc1ccnc2cc(Cl)ccc12 (centres unmarked) [HYDROXYCHLOROQUINE SULFATE] | 346.2 | 18.9 | -34.5 | 
COc1cccc2c1C(=O)c1c(O)c3c(c(O)c1C2=O)C[C@@](O)(C(=O)CO)C[C@@H]3O[C@H]1C[C@H](N)[C@H](O)[C@H](C)O1 [DOXORUBICIN] | 13.3 | -54.1 | 101 | 
Cc1cc2nc3c(=O)[nH]c(=O)nc-3n(CC(O)C(O)C(O)CO)c2cc1C (centres unmarked) [riboflavin, 7,8-dimethyl-10-(2,3,4,5-tetrahydroxypentyl)benzo[g]pteridine-2,4-dione] | 187.1 | 19.6 | -40 | 
Cc1cccc(C)c1N=C1NCCCS1 [XYLAZINE] | 196.8 | 28.9 | -52.5 | 
COc1cccc2c1C(=O)c1c(O)c3c(c(O)c1C2=O)C[C@@](O)(C(=O)CO)C[C@@H]3O[C@H]1C[C@H](N)[C@H](O)[C@H](C)O1.Cl [Doxorubicin Â•HCl] | 6.15 |  |  | PERCENT EFFECT 2 (Decreased GFP/Red ratio) (SARS-CoV-2 FSE (−1 PRF)): 109.41%; PERCENT EFFECT (Increased GFP/Red Ratio) (SARS-CoV-2 FSE (−1 PRF)): −57.80%
Cc1cc(C)c(Nc2ccnc(Nc3ccc(C#N)cc3)n2)c(C)c1 [dapivirine, 4-[[4-[(2,4,6-trimethylphenyl)amino]pyrimidin-2-yl]amino]benzonitrile] | 36.7 | 24 | -51.1 | 
CCOC(=O)Nc1ccc(NCc2ccc(F)cc2)nc1N [flupirtine, ethyl N-(2-amino-6-{[(4-fluorophenyl)methyl]amino}pyridin-3-yl)carbamate] | 110.5 | 14.4 | -27.2 | 
Nc1c2c(nc3ccccc13)CCCC2 [TACRINE HYDROCHLORIDE] |  |  |  | PERCENT VIABILITY (HEK293T cells; human): 148.9%; inhibition at 10 µM (SARS-CoV-2 FSE (−1 PRF); [1]): 97.1%; activation at 10 µM (SARS-CoV-2 FSE (−1 PRF); [4]): -50.2%
O=C(CCCCCCC(=O)Nc1ccccc1)NO [vorinostat] | 20.6 | 15.2 | -28.8 | 
NCCCNc1ccc2c3c(nn2CCNCCO)-c2c(O)ccc(O)c2C(=O)c13 [piroxantrone, 5-(AMINO-PR-AMINO)-DI-HO-2-(2-(HO-ET-AMINO)-ET)-2H-DIBENZO(CD,G)INDAZOL-ONE] | 91.45 | -43.5 | 88.7 | 
NCCNc1ccc(NCCN)c2c1C(=O)c1ccncc1C2=O [Pixantrone dimaleate, 6,9-bis[(2-aminoethyl)amino]-5H,10H-benzo[g]isoquinoline-5,10-dione] | 120.8 | 15.8 | -29.9 | 
Cc1cc(/C=C/c2ccc3cc(N(C)C)ccc3[n+]2C)c(C)n1-c1ccccc1 [PYRVINIUM PAMOATE] | 15.1 |  |  | 
O=C([O-])c1ccccc1-c1c2cc(Br)c(=O)cc-2oc2[c]([Hg+])c([O-])c(Br)cc12.[Na+].[Na+].[OH-] [MERBROMIN] | 167.4 |  |  | PERCENT EFFECT 2 (Decreased GFP/Red ratio) (SARS-CoV-2 FSE (−1 PRF)): 53.1%; PERCENT EFFECT (Increased GFP/Red Ratio) (SARS-CoV-2 FSE (−1 PRF)): −23.1%
O=P(O)(O)OC1[C@H](OP(=O)(O)O)[C@H](O)C(O)[C@H](O)[C@H]1OP(=O)(O)O (stereo partly drawn) [atrinositol, [(2R,3S,5R,6R)-3,4,5-trihydroxy-2,6-diphosphonooxycyclohexyl] dihydrogen phosphate] |  | 30.2 | -61.7 | PERCENT VIABILITY (HEK293T cells; human): 199.8%
O=C(Nc1cccc(C(F)(F)F)c1)c1ccccc1O [salfluverine, 2-hydroxy-N-[3-(trifluoromethyl)phenyl]benzamide] | 133.5 | 18.9 | -40.2 | 
COc1cccc2c1C(=O)c1c(O)c3c(c(O)c1C2=O)C[C@@](O)(C(=O)CO)C[C@@H]3O[C@H]1C[C@H](N)[C@@H](O)[C@H](C)O1 [EPIRUBICIN HYDROCHLORIDE] | 46.3 | -56.4 | 105 | 
CCN1/C(=C/C=C/C=C/c2sc3ccccc3[n+]2CC)Sc2ccccc21.[I-] [dithiazanine, 3-ethyl-2-[(1Z,3E,5E)-5-(3-ethyl-1,3-benzothiazol-2-ylidene)penta-1,3-dienyl]-1,3-benzothiazol-3-ium iodide] | 48.28 | -39 | 79.7 | 
Clc1ccc(C(Cn2ccnc2)OCc2ccsc2Cl)c(Cl)c1 (centres unmarked) [tioconazole] |  |  |  | PERCENT VIABILITY (HEK293T cells; human): 99.7%; inhibition at 10 µM (SARS-CoV-2 FSE (−1 PRF); [1]): -51.1%; activation at 10 µM (SARS-CoV-2 FSE (−1 PRF); [4]): 26.7%
Cc1cc(-c2ccc(/N=N/c3ccc4c(S(=O)(=O)O)cc(S(=O)(=O)O)c(N)c4c3O)c(C)c2)ccc1/N=N/c1ccc2c(S(=O)(=O)O)cc(S(=O)(=O)O)c(N)c2c1O [EVANS BLUE] | 159.7 | -13.6 | 31.2 | 
COc1cccc2c1C(=O)c1c(O)c3c(c(O)c1C2=O)C[C@@](O)(C(C)=O)C[C@@H]3O[C@H]1C[C@H](N)[C@H](O)[C@H](C)O1 [DAUNORUBICIN] | 15.3 |  | 108 | PERCENT VIABILITY (HEK293T cells; 10 μM compound, cell nuclei numbers, listed as daunorubicin): 16.18%
GRAMICIDIN [GRAMICIDIN (gramicidin A shown), Chem. Abs] | 3.3 |  |  | PERCENT VIABILITY (HEK293T cells; 10 μM compound, cell nuclei numbers, listed as gramicidin): 10.1%; PERCENT EFFECT 2 (Decreased GFP/Red ratio) (SARS-CoV-2 FSE (−1 PRF)): −29.0%; PERCENT EFFECT (Increased GFP/Red Ratio) (SARS-CoV-2 FSE (−1 PRF)): 15.0%; PERCENT EFFECT 2 (Decreased GFP/Red ratio) (SARS-CoV-2 FSE (−1 PRF); listed as gramicidin): −38.6%; PERCENT EFFECT (Increased GFP/Red Ratio) (SARS-CoV-2 FSE (−1 PRF); listed as gramicidin): 18.9%
O=C1OC2(c3ccccc31)c1cc(I)c(O)c(I)c1Oc1c2cc(I)c(O)c1I [ERYTHROSINE SODIUM] | 100.7 | -56.3 | 105 | 
